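These data come from cells grown in 96-well plates and exposed to compound for 48 hours at five concentrations. GI50 marks 50% less growth. TGI marks complete inhibition of growth.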
Experiments:
Assay in all cases: NCI anticancer screen, dose series, 48 h
DU-145 prostate = test system: DU-145 prostate
EKVX NSCLC = test system: EKVX NSCLC
HOP-62 NSCLC = test system: HOP-62 NSCLC
MDA-MB-435 = test system: MDA-MB-435
NCI-H226 lung = test system: NCI-H226 lung
NCI-H23 lung = test system: NCI-H23 lung
OVCAR-3 ovarian = test system: OVCAR-3 ovarian
SF-539 CNS = test system: SF-539 CNS
SK-MEL-5 melanoma = test system: SK-MEL-5 melanoma
SK-OV-3 ovarian = test system: SK-OV-3 ovarian

Row | SMILES | TGI (DU-145 prostate) [µM] | TGI (EKVX NSCLC) [µM] | TGI (HOP-62 NSCLC) [µM] | TGI (MDA-MB-435) [µM] | TGI (NCI-H226 lung) [µM] | TGI (NCI-H23 lung) [µM] | TGI (OVCAR-3 ovarian) [µM] | TGI (SF-539 CNS) [µM] | TGI (SK-MEL-5 melanoma) [µM] | TGI (SK-OV-3 ovarian) [µM] | GI50 (DU-145 prostate) [µM] | GI50 (EKVX NSCLC) [µM] | GI50 (MDA-MB-435) [µM] | GI50 (NCI-H226 lung) [µM] | GI50 (NCI-H23 lung) [µM] | GI50 (OVCAR-3 ovarian) [µM] | GI50 (SF-539 CNS) [µM] | GI50 (SK-MEL-5 melanoma) [µM] | GI50 (SK-OV-3 ovarian) [µM]
1 | CCOC(=O)c1c(CN2CCNCC2)nc2ccccc2c1-c1ccccc1 | 31.3 | 29.3 | 31 | 28.5 | 37.9 | 36 | 31.8 | 34.8 | 28.5 | 30.1 |  |  |  |  |  |  |  |  | 
2 | C/C=C\C(CC(=O)NCCc1cn(C(=O)OCc2ccccc2)c2ccccc12)CC(=O)OC (centres undefined) | > 100 | > 100 | > 100 | > 100 |  | > 100 | > 100 |  | > 100 | > 100 |  |  |  |  |  |  |  |  | 
3 | COC(=O)[C@H]1[C@@H](C(C)C)O[C@@H](C(C)C)O[C@H]1C(F)(F)F | > 100 | > 100 | > 100 | > 100 | > 100 | > 100 | > 100 | > 100 | > 100 | > 100 |  |  |  |  |  |  |  |  | 
4 | Cc1cc(O)c(C(C)C)cc1SC#N | 28.8 |  | 38.2 | 27 |  | 33.3 | 28.8 | 37.1 | 42.7 | 37.6 |  |  |  |  |  |  |  |  | 
5 | COc1nc(N(C)C)nc2c1n(C)c[n+]2C | > 100 | > 100 | > 100 | > 100 | > 100 | > 100 | > 100 | > 100 | > 100 | > 100 |  |  |  |  |  |  |  |  | 
6 | N/N=C1/C2CN3CCN(C2)CC1(c1ccc([N+](=O)[O-])cc1)C3 | > 100 | > 100 | > 100 | > 100 | > 100 | > 100 | > 100 | > 100 | > 100 |  |  |  |  |  |  |  |  |  | 
7 | O=[N+]([O-])c1ccc2nc(-c3ccccn3)c(-c3ccccn3)nc2c1 | > 100 | > 100 | > 100 | > 100 | > 100 | > 100 | > 100 | > 100 | > 100 | > 100 |  |  |  |  |  |  |  |  | 
8 | c1ccc(CCN2CCc3[nH]c4ccccc4c3C2)cc1 | > 100 | > 100 | 45.6 | 36 | 71.4 | > 100 |  | 40 | 33.9 | > 100 |  |  |  |  |  |  |  |  | 
9 | COc1cc2nc(-c3ccc4ccccc4c3)[nH]c(=O)c2cc1OC | > 100 | > 100 | 84.3 |  | > 100 | > 100 | > 100 |  | > 100 | > 100 |  |  |  |  |  |  |  |  | 
10 | NC(=S)N/N=C\c1ccc(OCc2cccc(COc3ccc(/C=N/NC(N)=S)cc3)n2)cc1 | > 100 | > 100 | > 100 | > 100 | > 100 | > 100 | > 100 | > 100 | 24.4 | > 100 |  |  |  |  |  |  |  |  | 
11 | O=C(CCN1CCCC1)Nc1ccc2sc3ccccc3c(=O)c2n1 | 25.7 | 20.1 | 19.6 | 17.8 | 29.2 | 22.9 | 20.5 | 18.1 | 16.4 | 14.3 |  |  |  |  |  |  |  |  | 
12 | CC1OC2=N[C@@H]1C(=O)N[C@@H](C(C)C)C1=N[C@H](C(=O)N[C@@H](C(C)C)C3=N[C@H](C(=O)N[C@@H](C(C)C)C4=N[C@H](C(=O)N[C@H]2C(C)C)C(C)O4)C(C)O3)C(C)O1 (some centres undefined) | > 10 | > 10 | > 10 | > 10 | > 10 | > 10 | > 10 | > 10 | > 10 | > 10 |  |  |  |  |  |  |  |  | 
13 | Cn1nc2n(c1=O)CCCN2 | > 100 | > 100 | > 100 | > 100 | > 100 | > 100 | > 100 | > 100 | > 100 |  |  |  |  |  |  |  |  |  | 
14 | C/C(=C\c1ccccn1)c1ccccn1 | > 100 | > 100 | > 100 | > 100 |  | > 100 | > 100 |  | > 100 | > 100 |  |  |  |  |  |  |  |  | 
15 | CC[N+](C)(CC)CCC(O)(c1ccccc1)c1ccccc1 | > 100 | > 100 | > 100 | > 100 | > 100 | > 100 | > 100 |  | > 100 | > 100 |  |  |  |  |  |  |  |  | 
16 | O=[N+]([O-])c1ccc(S[C@@H]2[C@H]3c4c(-c5ccccc5)[nH]c(-c5ccccc5)c4[C@@H]2C[C@H]3Cl)cc1 | 17.3 |  | 67.6 | 27.8 | > 100 | 8.91 | 35.8 | > 100 | 23.5 | > 100 |  |  |  |  |  |  |  |  | 
17 | CN(C)/N=C/c1cn(C)c(=O)n(C)c1=O | > 100 | > 100 | > 100 | > 100 | > 100 | > 100 | > 100 | > 100 | > 100 | > 100 |  |  |  |  |  |  |  |  | 
18 | CC1(C)OCC(C(O)C2OC(C)(C)OC2C=O)O1 (centres undefined) | > 100 | > 100 | > 100 | > 100 | > 100 | > 100 | > 100 |  | > 100 | > 100 |  |  |  |  |  |  |  |  | 
19 | Clc1ccc(N2N=C(c3cccc(Nc4ccncc4)c3)CC2c2ccc3c(c2)OCO3)cc1 (centres undefined) | 3.39 | 13.3 |  | 3.02 | 33.1 | 3.37 | 3.07 | 3.38 | 3.17 | 24.1 | 1.84 | 2.9 | 1.53 | 7.28 | 1.74 | 1.63 | 1.79 | 1.76 | 4.31
20 | COc1ccc2c(c1)C(N)=C(c1ccccc1)C2=O | > 100 | > 100 | > 100 | > 100 | > 100 | > 100 | > 100 | > 100 | > 100 | > 100 |  |  |  |  |  |  |  |  | 
21 | CCOC(=O)C1(C(=O)OCC)[C@H](c2ccccc2)C2=NO[C@@H]3CCC[C@H]1[C@H]23 | > 100 | > 100 | > 100 | 51.5 | > 100 | > 100 | 96.8 | > 100 | > 100 | > 100 |  |  |  |  |  |  |  |  | 
